Results taken from US10011818B2, “Method for in vitro oocyte maturation” (CHINA AGRICULTURE UNIVERSITY, priority 2012, dated 2018).
Read-outs that look alike come from different tables or passages of the source.

What was measured:
[1] = system: oocyte nuclear maturation; conditions: cited from earlier work
oocyte meiotic arrest = conditions: mice, Zhang et al., 2010; cited from earlier work
bovine oocytes [2] = assay: Effect of CNP pre-IVM and extended IVM on developmental rate of bovine oocytes after IVF (cleavage, blastocyst); format: cell-based; conditions: for No. of cleavage / cleavage (%) / No. of blastocysts / blastocysts (%): CNP 200 nM pre-IVM 6 h; for No. of cleavage: day 2; for cleavage (%): day 2, mean ± SEM; for No. of blastocysts: day 7; for blastocysts (%): day 7, mean ± SEM
Description: (§1) Bovine ovaries were obtained from a local slaughterhouse, transported at 30-35° C. to the laboratory within 1 hour, and washed in warmed normal saline containing 2% Penicillin G-Streptomycin. Ovarian antral follicles (3-8 mm) were aspirated using an 18-gauge needle. cumulus-oocyte complexes (COCs) with homogenous oocyte cytoplasm and complete, compacted, and multilayered CCs (Grade-1) or complete but fewer than three layers of CCs (Grade-2), were collected using micropipettes.
(§2) Grade-1 and -2 COCs were washed in the washing buffer (HEPES-TCM199) for three times, and then washed in pre-IVM medium (TCM199 containing 3 mg/ml BSA and CNP at different concentrations (50, 100, 200 and 400 nM) for two times. After that, COCs were transfer into pre-IVM medium (pre-warmed for 2 hours) in 4-well plate (500 μl pre-IVM medium and 50 COCs in each well) and cultured for 6 hours at 38.5° C., in humidified air with 5% CO2. After pre-IVM phase, a proportion of COCs are digested with hyaluronidase to remove cumulus cells. To determine the most preferable concentration of CNP for pre-VIM, meiosis kinetics of oocytes was evaluated according to nuclear morphology using DAPI staining under a fluorescence microscope. The oocytes without pre-IVM phase are used as control.
After cultured in pre-IVM medium containing 200 nM CNP, COCs are further cultured in extended-IVM medium (TCM199 supplemented with 10 μg/ml FSH, […], 1 μg/ml E2, 10 ng/ml EGF, 10% FBS) at 38.5° C., in humidified air with 5% CO2. To determine the most preferable duration for extended-IVM, COCs were cultured for 24, 26 or 28 hours. In addition, COCs without pre-IVM phase, are also cultured in […] for 24, 26 or 28 hours as controls.
After maturation, the COCs were fertilized in BO medium for 8 hours at 39° C. under 5% CO2 in a humidified atmosphere. After fertilization, the presumptive zygotes were transferred to 100 μl CR1 culture medium droplets (15 zygotes in each droplets) at 39° C. in a humidified atmosphere. The culture medium was changed every 2 days during the culture period. The percentage cleavage and rates of subsequent embryo development to the blastocyst stage were recorded on day 2 and 7, respectively.

[3] = system: oocyte maturation and embryonic development; conditions: CNP pretreatment 100 nM alone, without extended IVM; cited from earlier work
[4] = system: bovine oocytes and subsequent preimplantation embryos
bovine oocytes [5] = assay: Effect of CNP pretreatment (pre-IVM) on meiotic resumption of bovine oocytes, nuclear morphology by DAPI staining; format: cell-based; conditions: for No. of GV oocytes / No. of GVBD oocytes / GV oocytes (%) / GVBD oocytes (%): pre-IVM 6 hours; for GV oocytes (%) / GVBD oocytes (%): mean ± SEM
Description: as §1, §2

[6] = literature, chemical meiotic inhibitors

## CN(C)c1ncnc2nc[nH]c12 [6-DMAP]
[1]; [6]
  inhibitory effect on nuclear maturation: evident inhibitory effect

## O=C1CCCO1 [butyrolactone]
[1]; [6]
  inhibitory effect on nuclear maturation: evident inhibitory effect

## C[C@@H]1C[C@@H]([C@H](O)CC2CC(=O)NC(=O)C2)C(=O)[C@@H](C)C1 [cycloheximide]
[1]; [6]
  inhibitory effect on nuclear maturation: evident inhibitory effect

## CC[C@H](CO)Nc1nc(NCc2ccccc2)c2ncn(C(C)C)c2n1 [roscovitine]
[1]
  inhibitory effect on nuclear maturation: evident inhibitory effect

## C-type natriuretic peptide [CNP]
Oocyte meiotic arrest
  preferable concentration of CNP for meiotic inhibition: 100 nM
Bovine oocytes [2]; extended-IVM 24 h, after IVF
  No. of cleavage: 157
  cleavage (%): 81.3 ± 2.7%
  No. of blastocysts: 53
  blastocysts (%): 27.5 ± 1.3%
Bovine oocytes [2]; extended-IVM 26 h, after IVF
  No. of cleavage: 89
  cleavage (%): 87.1 ± 0.75%
  No. of blastocysts: 62
  blastocysts (%): 28.6 ± 0.7%
Bovine oocytes [2]; extended-IVM 28 h, after IVF
  No. of cleavage: 186
  cleavage (%): 88.3 ± 3.0%
  No. of blastocysts: 80
  blastocysts (%): 37.4 ± 2.5%
Bovine oocytes [2]; CNP pre-IVM plus extended IVM (novel method)
  blastocyst rates: significantly enhances blastocyst rates
Bovine oocytes [2]; CNP pre-treatment followed by extended IVM phase, after IVF
  cleavage rates versus counterparts without CNP pre-IVM: significantly higher
[3]
  oocyte maturation and embryonic development result: could not lead to an evidently satisfying results
[4]
  adverse effect on bovine oocytes and subsequent preimplantation embryos: doesn't show any evident adverse effect
Bovine oocytes [5]; CNP 50 nM
  No. of GV oocytes: 64
  No. of GVBD oocytes: 37
  GV oocytes (%): 63.4 ± 3.1%
  GVBD oocytes (%): 21.3 ± 3.1%
Bovine oocytes [5]; CNP 100 nM
  No. of GV oocytes: 68
  No. of GVBD oocytes: 30
  GV oocytes (%): 69.4 ± 2.6%
  GVBD oocytes (%): 30.6 ± 2.6%
Bovine oocytes [5]; CNP 200 nM, P<0.01
  rate of oocytes maintaining at GV stage versus control: significant higher
Bovine oocytes [5]; CNP 200 nM
  No. of GV oocytes: 79
  No. of GVBD oocytes: 18
  GV oocytes (%): 81.4 ± 2.1%
  GVBD oocytes (%): 19.6 ± 2.1%
Bovine oocytes [5]; CNP 400 nM
  No. of GV oocytes: 79
  No. of GVBD oocytes: 27
  GV oocytes (%): 74.5 ± 2.8%
  GVBD oocytes (%): 25.5 ± 2.8%
Bovine oocytes [5]; concentration higher than 400 nM or lower than 100 nM
  inhibitory effect on meiotic resumption outside the range: no evident inhibitory effect
Bovine oocytes [5]; dose-dependent pattern, bovine oocytes
  concentration of maximal inhibitory effect on meiotic resumption: 200 nM
Bovine oocytes [5]; pre-IVM pretreatment, bovine oocytes
  concentration range with significant inhibition of oocyte meiotic resumption: 100 to 400 nM
